Drawing on ChEMBL document CHEMBL1130698, “Design and synthesis of new potent, silent 5-HT1A antagonists by covalent coupling of aminopropanol derivatives with selective serotonin reuptake inhibitors” (Bioorg Med Chem Lett, 1998), this text covers Kb and Ki for twelve compounds.

For experiment [1], the target named is T1, 5-hydroxytryptamine receptor 1A (Homo sapiens) (UniProt P08908).
T1 sequence (whole entry): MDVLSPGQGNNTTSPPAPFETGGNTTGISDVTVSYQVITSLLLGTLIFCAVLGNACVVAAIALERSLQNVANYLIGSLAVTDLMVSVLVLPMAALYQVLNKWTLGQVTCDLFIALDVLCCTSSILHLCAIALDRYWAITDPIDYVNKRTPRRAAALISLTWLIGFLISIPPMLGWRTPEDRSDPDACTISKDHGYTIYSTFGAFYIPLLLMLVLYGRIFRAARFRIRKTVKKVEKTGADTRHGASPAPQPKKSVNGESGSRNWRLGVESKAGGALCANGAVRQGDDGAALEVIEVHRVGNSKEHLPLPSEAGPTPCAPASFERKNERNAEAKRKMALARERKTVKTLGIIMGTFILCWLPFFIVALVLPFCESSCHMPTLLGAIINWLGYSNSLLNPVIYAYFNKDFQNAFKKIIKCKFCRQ
Kind of experiment: Antagonistic potency as binding affinity of 5-HT stimulated [35S]GTP gamma S to human 5-HT1A receptor. The class given is functional.

Experiment [2] has as its target T2, 5-hydroxytryptamine receptor 1A (Homo sapiens, UniProt P08908).
T2 sequence (P08908 whole entry): T1 sequence (whole entry)
Kind of experiment: Displacement of [3H]8-OH-DPAT from human 5-HT1A receptor. On the technique in general: Displacement assays read how much labelled ligand stays bound in the presence of the test substance.

Broadly, the Kb is the equilibrium dissociation constant of an antagonist, usually derived from a functional assay. A high value points to lower antagonist affinity. As usually defined, the Ki is a measure of affinity in units of concentration, obtained from inhibition or displacement.

`O[C@@H](CNCC[C@H](Oc1ccc(C(F)(F)F)cc1)c1ccccc1)COc1cccc2[nH]ccc12` registered a Kb in experiment [1] of 0.2 nM. Also, the affinity in experiment [2], expressed as Ki, was 7.8 nM.
The like results for `O[C@@H](COc1cccc2[nH]ccc12)CN1CC[C@@H](c2ccc(F)cc2)[C@H](COc2ccc3c(c2)OCO3)C1` were, in that order, 7.5 nM and 15.7 nM.
The like results for `OC(CNCCCCCCN1CC[C@H](c2ccc(F)cc2)[C@@H](COc2ccc3c(c2)OCO3)C1)COc1cccc2[nH]ccc12` (some centres undefined) were, in that order, 4.3 nM and 6.7 nM.
The like results for `O[C@H](COc1cccc2[nH]ccc12)CN1CC[C@@H](c2ccc(F)cc2)[C@H](COc2ccc3c(c2)OCO3)C1` were, in that order, 0.7 nM and 5.9 nM.
Take `CCN(CC)C(=O)[C@@]1(c2ccccc2)C[C@H]1CNCC(O)COc1cccc2[nH]ccc12` (some centres undefined): in experiment [1], the Kb stood at 14.8 nM. The compound also had a Ki in experiment [2] of 45.4 nM.
Consider `O[C@@H](CNCC[C@H](Oc1ccc(C(F)(F)F)cc1)c1ccccc1)COc1cccc2ccccc12`, for which the Kb in experiment [1] is 37.9 nM. The compound also yielded a Ki in experiment [2] of 32.9 nM.
For `OC(CNCCC(Oc1ccc(C(F)(F)F)cc1)c1ccccc1)COc1ccccc1C1CCCC1` (centres undefined), the Kb in experiment [1] worked out at 15.2 nM. Also, the Ki in experiment [2] worked out at 36.4 nM.
The like results for `O[C@H](CNCC[C@H](Oc1ccc(C(F)(F)F)cc1)c1ccccc1)COc1cccc2ccccc12` were, in that order, 388 nM and 142 nM.
The like results for `OC(CNCCCCCCNCCC(Oc1ccc(C(F)(F)F)cc1)c1ccccc1)COc1cccc2ccccc12` (centres undefined) were, in that order, 1730 nM and 391 nM.
`OC(CNCCC(Oc1ccc(C(F)(F)F)cc1)c1ccccc1)COc1cccc2[nH]ccc12` (centres undefined) had a Kb in experiment [1] of 2.2 nM. The compound also showed an inhibition constant (Ki) in experiment [2] of 18.7 nM.
The like results for `O[C@H](CNCC[C@H](Oc1ccc(C(F)(F)F)cc1)c1ccccc1)COc1cccc2[nH]ccc12` were, in that order, 1.4 nM and 60.3 nM.
As for `OC(CNCCCCCCN1CC[C@H](c2ccc(F)cc2)[C@@H](COc2ccc3c(c2)OCO3)C1)COc1cccc2ccccc12` (some centres undefined), in experiment [1], the antagonist dissociation constant (Kb) was 188 nM. The affinity in experiment [2] corresponds to a Ki of 156 nM.
